Reference: PubChem BioAssay (NCI)
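Protocol summary: plate cells (96-well), add compound at 5 concentrations, incubate 48 h, interpolate endpoints linearly. Here, GI50 denotes the concentration required for 50% inhibition of growth. TGI: total growth inhibition.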

Legend:
Assay in all cases: NCI tumour cell line growth inhibition, 48 h
[1] = test system: MDA-MB-231 breast
[2] = test system: MDA-MB-435
[3] = test system: SNB-19 CNS
[4] = test system: SK-MEL-28 melanoma
[5] = test system: SR leukemia
[6] = test system: NCI-H460 lung
[7] = test system: SNB-75 CNS
[8] = test system: PC-3 prostate
[9] = test system: RXF 393 renal
[10] = test system: M14 melanoma
[11] = test system: CCRF-CEM leukemia
[12] = test system: 786-0 renal
[13] = test system: SN12C renal
[14] = test system: BT-549 breast
[15] = test system: HCT-116 colon
[16] = test system: A549 NSCLC
[17] = test system: SF-268 CNS
[18] = test system: UO-31 renal
[19] = test system: OVCAR-4 ovarian
[20] = test system: LOX IMVI melanoma
[21] = test system: ACHN renal
[22] = test system: SW-620 colon
[23] = test system: HT29 colon
[24] = test system: HS 578T breast
[25] = test system: SK-OV-3 ovarian
[26] = test system: RPMI-8226 leukemia
[27] = test system: COLO 205 colon
[28] = test system: SF-539 CNS
[29] = test system: UACC-257 melanoma
[30] = test system: HCC-2998 colon
[31] = test system: IGROV1 ovarian
[32] = test system: HL-60(TB) leukemia
[33] = test system: HOP-92 NSCLC
[34] = test system: A498 renal
[35] = test system: MOLT-4 leukemia
[36] = test system: SK-MEL-5 melanoma
[37] = test system: HOP-62 NSCLC
[38] = test system: NCI-H226 lung
[39] = test system: NCI-H23 lung
[40] = test system: OVCAR-3 ovarian
[41] = test system: NCI/ADR-RES ovarian
[42] = test system: CAKI-1 renal
[43] = test system: MALME-3M melanoma
[44] = test system: DU-145 prostate
[45] = test system: SK-MEL-2 melanoma
[46] = test system: UACC-62 melanoma
[47] = test system: NCI-H522 lung
[48] = test system: SF-295 CNS
[49] = test system: T-47D breast
[50] = test system: K-562 leukemia
[51] = test system: U251 CNS
[52] = test system: OVCAR-5 ovarian
[53] = test system: MCF7 breast
[54] = test system: HCT-15 colon
[55] = test system: OVCAR-8 ovarian
[56] = test system: KM12 colon
[57] = test system: TK-10 renal
[58] = test system: EKVX NSCLC

ClCCn1c(CCl)nc2ccc(Cl)cc21
GI50 [1]: 1520 nM
TGI [1]: 3380 nM
GI50 [2]: 692 nM
TGI [2]: 2120 nM
GI50 [3]: 2330 nM
TGI [3]: 7190 nM
GI50 [4]: 1680 nM
TGI [4]: 3490 nM
GI50 [5]: 232 nM
TGI [5]: 4320 nM
GI50 [6]: 955 nM
TGI [6]: 4590 nM
GI50 [7]: 1140 nM
TGI [7]: 2410 nM
GI50 [8]: 1580 nM
TGI [8]: 3390 nM
GI50 [9]: 379 nM
TGI [9]: 1340 nM
GI50 [10]: 466 nM
TGI [10]: 1640 nM
GI50 [11]: 280 nM
TGI [11]: 1650 nM
GI50 [12]: 1320 nM
TGI [12]: 2940 nM
GI50 [13]: 257 nM
TGI [13]: 708 nM
GI50 [14]: 277 nM
TGI [14]: 753 nM
GI50 [15]: 272 nM
TGI [15]: 731 nM
GI50 [16]: 1760 nM
TGI [16]: 4240 nM
GI50 [17]: 1220 nM
TGI [17]: 2950 nM
GI50 [18]: 1570 nM
TGI [18]: 3110 nM
GI50 [19]: 1340 nM
TGI [19]: 4710 nM
GI50 [20]: 156 nM
TGI [20]: 317 nM
GI50 [21]: 1350 nM
TGI [21]: 2720 nM
GI50 [22]: 289 nM
TGI [22]: 1110 nM
GI50 [23]: 436 nM
TGI [23]: 1390 nM
GI50 [24]: 2060 nM
TGI [24]: 7030 nM
GI50 [25]: 305 nM
TGI [25]: 853 nM
GI50 [26]: 1420 nM
TGI [26]: 3870 nM
GI50 [27]: 1550 nM
TGI [27]: 3070 nM
GI50 [28]: 1440 nM
TGI [28]: 2820 nM
GI50 [29]: 1620 nM
TGI [29]: 3490 nM
GI50 [30]: 2010 nM
TGI [30]: 3870 nM
GI50 [31]: 213 nM
TGI [31]: 476 nM
GI50 [32]: 1890 nM
TGI [32]: 4110 nM
GI50 [33]: 938 nM
TGI [33]: 2630 nM
GI50 [34]: 2050 nM
TGI [34]: 4800 nM
GI50 [35]: 305 nM
TGI [35]: 810 nM
GI50 [36]: 176 nM
TGI [36]: 329 nM
GI50 [37]: 1580 nM
TGI [37]: 3300 nM
GI50 [38]: 193 nM
TGI [38]: 442 nM
GI50 [39]: 252 nM
TGI [39]: 832 nM
GI50 [40]: 1870 nM
TGI [40]: 3450 nM
GI50 [41]: 1210 nM
TGI [41]: 4360 nM
GI50 [42]: 1600 nM
TGI [42]: 3200 nM
GI50 [43]: 460 nM
TGI [43]: 1890 nM
GI50 [44]: 1750 nM
TGI [44]: 3220 nM
GI50 [45]: 1650 nM
TGI [45]: 3600 nM
GI50 [46]: 430 nM
TGI [46]: 1590 nM
GI50 [47]: 185 nM
TGI [47]: 363 nM
GI50 [48]: 2210 nM
TGI [48]: 5500 nM
GI50 [49]: 1860 nM
TGI [49]: 4190 nM
GI50 [50]: 340 nM
TGI [50]: 1030 nM
GI50 [51]: 1160 nM
TGI [51]: 2700 nM
GI50 [52]: 1210 nM
TGI [52]: 2770 nM
GI50 [53]: 372 nM
TGI [53]: 2010 nM
GI50 [54]: 392 nM
TGI [54]: 2230 nM
GI50 [55]: 338 nM
TGI [55]: 1600 nM
GI50 [56]: 1910 nM
TGI [56]: 4330 nM
GI50 [57]: 1460 nM
TGI [57]: 2950 nM

CC1(C)SC2C(NC(=O)C(N)c3ccccc3)C(=O)N2C1C(=O)O (stereo not given)
TGI [1]: > 100000 nM
TGI [2]: > 100000 nM
TGI [3]: > 100000 nM
TGI [4]: > 100000 nM
TGI [5]: > 100000 nM
TGI [6]: > 100000 nM
TGI [7]: > 100000 nM
TGI [8]: > 100000 nM
TGI [10]: > 100000 nM
TGI [11]: > 100000 nM
TGI [12]: > 100000 nM
TGI [13]: > 100000 nM
TGI [14]: > 100000 nM
TGI [15]: > 100000 nM
TGI [16]: > 100000 nM
TGI [17]: > 100000 nM
TGI [18]: > 100000 nM
TGI [20]: > 100000 nM
TGI [21]: > 100000 nM
TGI [22]: > 100000 nM
TGI [23]: > 100000 nM
TGI [24]: > 100000 nM
TGI [26]: > 100000 nM
TGI [27]: > 100000 nM
TGI [28]: > 100000 nM
TGI [29]: > 100000 nM
TGI [30]: > 100000 nM
TGI [31]: > 100000 nM
TGI [58]: > 100000 nM
TGI [32]: > 100000 nM
TGI [33]: > 100000 nM
TGI [35]: > 100000 nM
TGI [36]: > 100000 nM
TGI [37]: > 100000 nM
TGI [39]: > 100000 nM
TGI [40]: > 100000 nM
TGI [41]: > 100000 nM
TGI [42]: > 100000 nM
TGI [44]: > 100000 nM
TGI [45]: > 100000 nM
TGI [46]: > 100000 nM
TGI [47]: > 100000 nM
TGI [48]: > 100000 nM
TGI [49]: > 100000 nM
TGI [51]: > 100000 nM
TGI [52]: > 100000 nM
TGI [53]: > 100000 nM
TGI [54]: > 100000 nM
TGI [55]: > 100000 nM
TGI [56]: > 100000 nM
TGI [57]: > 100000 nM
